Laboratory results as given in PubChem BioAssay (NCI).
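Results reflect a 48-hour exposure of cells in 96-well plates to compound at five concentrations. GI50 marks 50% less growth. TGI marks complete inhibition of growth.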

Legend:
Assay in all cases: NCI-60 cell line screen, 48 h
OVCAR-4 ovarian = tested on: OVCAR-4 ovarian
HS 578T breast = tested on: HS 578T breast
SK-MEL-28 melanoma = tested on: SK-MEL-28 melanoma
MALME-3M melanoma = tested on: MALME-3M melanoma
HT29 colon = tested on: HT29 colon
A498 renal = tested on: A498 renal
CCRF-CEM leukemia = tested on: CCRF-CEM leukemia
EKVX NSCLC = tested on: EKVX NSCLC
CAKI-1 renal = tested on: CAKI-1 renal
MDA-MB-435 = tested on: MDA-MB-435

Row | Compound | TGI (OVCAR-4 ovarian) | TGI (HS 578T breast) | TGI (SK-MEL-28 melanoma) | TGI (MALME-3M melanoma) | TGI (HT29 colon) | TGI (A498 renal) | TGI (CCRF-CEM leukemia) | TGI (EKVX NSCLC) | TGI (CAKI-1 renal) | TGI (MDA-MB-435) | GI50 (OVCAR-4 ovarian) | GI50 (SK-MEL-28 melanoma) | GI50 (MALME-3M melanoma) | GI50 (EKVX NSCLC)
1 | C/C(Cl)=N\OC(=O)Nc1ccc(C)cc1 | 32.9 µM | 83 µM | 28.1 µM | 31 µM | 41.6 µM | 32.9 µM | 6.31 µM | 32.3 µM | 30.4 µM | – | – | – | – | –
2 | O=[N+]([O-])c1ccc(NC(=S)N=Nc2c(O)[nH]c3ccc([N+](=O)[O-])cc23)cc1 | 40.8 µM | > 100 µM | 80.7 µM | 55.5 µM | 65.6 µM | 32.7 µM | 60.4 µM | 63.6 µM | 43.2 µM | 38.7 µM | – | – | – | –
3 | CCc1c(CNc2ccc(C(=O)NC(CC(=O)O)C(=O)O)cc2)ccc2nc(N)nc(N)c12 (stereo not given) | > 1000 µM | > 1000 µM | > 1000 µM | > 1000 µM | > 1000 µM | – | > 1000 µM | > 1000 µM | > 1000 µM | > 1000 µM | 869 µM | > 1000 µM | 0.179 µM | 558 µM
4 | Cc1c(CN2CCN(C)CC2)c(CN2CCN(C)CC2)c(C)n1-c1ccc(Cl)cc1 | > 100 µM | 70.6 µM | 39.2 µM | 37.5 µM | 42.7 µM | 51.2 µM | 46.8 µM | > 100 µM | 59.9 µM | 62.7 µM | – | – | – | –
5 | O=C1NC2CCCCC2N=C1CC(=O)c1ccc(Br)cc1 (stereo not given) | – | 42.1 µM | > 100 µM | > 100 µM | > 100 µM | > 100 µM | > 100 µM | 93.8 µM | > 100 µM | > 100 µM | – | – | – | –
6 | COc1ccccc1C1Nn2c(nc3ccccc3c2=O)N1c1ccc(C)cc1 (stereo not given) | 11.9 µM | 27.9 µM | 20.3 µM | 38.7 µM | 29.5 µM | – | 24.7 µM | 34.6 µM | 24.1 µM | 22.7 µM | – | – | – | –
7 | CC(C)N1CC2CC(CN(C(=O)c3ccccc3)C2)C1 | > 100 µM | – | > 100 µM | > 100 µM | > 100 µM | > 100 µM | > 100 µM | > 100 µM | > 100 µM | – | – | – | – | –
8 | COc1cc(CC(C)NC(C)=O)cc(OC)c1 (stereo not given) | – | > 100 µM | > 100 µM | > 100 µM | > 100 µM | > 100 µM | > 100 µM | – | > 100 µM | > 100 µM | – | – | – | –
9 | Cc1cc(C)c2c(=O)cc(-c3cccc(F)c3)[nH]c2n1 | > 100 µM | 3.36 µM | 92.9 µM | > 100 µM | 1.8 µM | > 26.9 µM | – | > 100 µM | > 66.3 µM | – | – | – | – | –
10 | Cc1cc(S(=O)(=O)Nc2n[nH]c(-c3ccccn3)n2)c(S)cc1Cl | 65.5 µM | 86.6 µM | > 100 µM | 60.3 µM | 41.7 µM | 30.5 µM | – | 92 µM | 15.7 µM | 70.6 µM | – | – | – | –
11 | COC(=O)c1ccccc1NC(=O)C(=O)NNC(=O)c1ccncc1 | > 100 µM | – | > 100 µM | > 100 µM | > 100 µM | – | > 100 µM | > 100 µM | > 100 µM | – | – | – | – | –
